# From US11371055B2, “Herbicide resistance genes” (CORTEVA AGRISCIENCE LLC, priority 2005, dated 2022)
# Marks after values point to notes of the source that are not given here.
# What was measured:
# Format in all cases: in vivo, Arabidopsis thaliana
# [1] = tested on: AAD-12 (v1) gene T1 transformants (Arabidopsis); experiment: T1 Arabidopsis postemergence herbicide dose response, % visual injury
# Experimental: Freshly harvested T1 seed [AAD-12 (v1) gene] was allowed to dry for 7 days at room temperature. T1 seed was sown in 26.5×51-cm germination trays (T.O. Plastics Inc., Clearwater, Minn.), each receiving a 200 mg aliquots of stratified T, seed (˜10,000 seed) that had previously been suspended in 40 ml of 0.1% agarose solution and stored at 4° C. for 2 days to complete dormancy requirements and ensure synchronous seed germination.
# Sunshine Mix LP5 (Sun Gro Horticulture Inc., Bellevue, Wash.) was covered with fine vermiculite and subirrigated with Hoagland's solution until wet, then allowed to gravity drain. Each 40 ml aliquot of stratified seed was sown evenly onto the vermiculite with a pipette and covered with humidity domes (KORD Products, Bramalea. Ontario, Canada) for 4-5 days. Domes were removed 1 day prior to initial transformant selection using glufosinate postemergence spray (selecting for the co-transformed PAT gene).
# Seven days after planting (DAP) and again 11 DAP, T1 plants (cotyledon and 2-4-lf stage, respectively) were sprayed with a 0.2% solution of Liberty herbicide (200 g ai/L glufosinate, Bayer Crop Sciences, Kansas City, Mo.) at a spray volume of 10 ml/tray (703 L/ha) using a DeVilbiss compressed air spray tip to deliver an effective rate of 280 g ai/ha glufosinate per application. Survivors (plants actively growing) were identified 4-7 days after the final spraying and transplanted individually into 3-inch pots prepared with potting media (Metro Mix 360). Transplanted plants were covered with humidity domes for 3-4 days and placed in a 22° C. growth chamber as before or moved to directly to the greenhouse. Domes were subsequently removed and plants reared in the greenhouse (22±5° C., 50±30% RH, 14 h light:10 dark, minimum 500 μE/m^2 s^1 natural+supplemental light) at least 1 day prior to testing for the ability of AAD-12 (v1) (plant optimized gene) to provide phenoxy auxin herbicide resistance.
# T1 plants were then randomly assigned to various rates of 2,4-D. For Arabidopsis, 50 g ae/ha 2,4-D is an effective dose to distinguish sensitive plants from ones with meaningful levels of resistance. Elevated rates were also applied to determine relative levels of resistance (50, 200, 800, or 3200 g ac/ha). Tables 10 and 11 show comparisons drawn to an aryloxyalkanoate herbicide resistance gene (AAD-1 (v3)) previously described in PCT/US2005/014737.
# All auxin herbicide applications were made using the DeVilbiss sprayer as described above to apply 703 L/ha spray volume (0.4 ml solution/3-inch pot) or applied by track sprayer in a 187 L/ha spray volume. 2,4-D used was either technical grade (Sigma, St. Louis, Mo.) dissolved in DMSO and diluted in water (<1% DMSO final concentration) or the commercial dimethylamine salt formulation (456 g ac/L, NuFarm, St Joseph, Mo.). Dichlorprop used was commercial grade formulated as potassium salt of R-dichlorprop (600 g ai/L, AH Marks). As herbicide rates increased beyond 800 g ae/ha, the pH of the spray solution became exceedingly acidic, burning the leaves of young, tender Arabidopsis plants and complicating evaluation of the primary effects of the herbicides. It became standard practice to apply these high rates of herbicides in 200 mM HEPES buffer, pH 7.5.
# The first Arabidopsis transformations were conducted using AAD-12 (v1) (plant optimized gene). T1 transformants were first selected from the background of untransformed seed using a glufosinate selection scheme. Over 300,000 T1 seed were screened and 316 glufosinate resistant plants were identified (PAT gene), equating to a transformation/selection frequency of 0.10% which lies in the normal range of selection frequency of constructs where PAT+Liberty are used for selection. T1 plants selected above were subsequently transplanted to individual pots and sprayed with various rates of commercial aryloxyalkanoate herbicides. […]
# [2] = tested on: Segregating T2 AAD-12 (v1) plants (pDAB724.01.1.20); experiment: Foliar-applied auxinic herbicides on T2 Arabidopsis; conditions: Pyridyloxyacetic auxins
# Experimental: (§1) The ability of AAD-12 (v1) to provide resistance to other aryloxyalkanoate auxin herbicides in transgenic Arabidopsis was determined by foliar application of various substrates. T2 generation Arabidopsis seed was stratified, and sown into selection trays much like that of Arabidopsis (Example 6.4). A transformed-control line containing PAT and the insect resistance gene Cry1F was planted in a similar manner. Seedlings were transferred to individual 3-inch pots in the greenhouse. All plants were sprayed with the use of a track sprayer set at 187 L/ha. The plants were sprayed with a range of pyridyloxyacetate herbicides: 280-2240 g ae/ha triclopyr (Garlon 3A, Dow AgroSciences) and 280-2240 g ae/ha fluroxypyr (Starane, Dow AgroSciences); and the 2,4-D metabolite resulting from AAD-12 activity, 2,4-dichlorophenol (DCP, Sigma) (at a molar equivalent to 280-2240 g ac/ha of 2,4-D, technical grade DCP was used). All applications were formulated in water. Each treatment was replicated 3-4 times. Plants were evaluated at 3 and 14 days after treatment.
# [3] = tested on: Pat/Cry1f-Control Arabidopsis; experiment: Foliar-applied auxinic herbicides on transformed control Arabidopsis; conditions: Pyridyloxyacetic auxins
# Experimental: as §1
# [4] = 50 g ae/ha 2,4-D postemergence, 2 WAT
# [5] = 200 g ae/ha 2,4-D postemergence, 2 WAT
# [6] = 800 g ae/ha 2,4-D postemergence, 2 WAT
# [7] = 3200 g ae/ha 2,4-D postemergence, 2 WAT
# [8] = 50 g ae/ha R-dichlorprop postemergence
# [9] = 200 g ae/ha R-dichlorprop postemergence
# [10] = 800 g ae/ha R-dichlorprop postemergence
# [11] = 3200 g ae/ha R-dichlorprop postemergence
smiles,measurement,setting,value
"O=C(O)COc1ccc(Cl)cc1Cl [2,4-D, 2,4-dichlorophenoxyacetic acid]",% Injury 20-40% (number of individuals),[1]; [4],0
same,% Injury <20% (number of individuals),[1]; [4],6
same,% Injury >40% (number of individuals),[1]; [4],2
same,% Injury Ave,[1]; [4],16%
same,% Injury 20-40% (number of individuals),[1]; [5],1
same,% Injury <20% (number of individuals),[1]; [5],6
same,% Injury >40% (number of individuals),[1]; [5],1
same,% Injury Ave,[1]; [5],11%
same,% Injury 20-40% (number of individuals),[1]; [6],2
same,% Injury <20% (number of individuals),[1]; [6],5
same,% Injury >40% (number of individuals),[1]; [6],1
same,% Injury Ave,[1]; [6],15%
same,% Injury 20-40% (number of individuals),[1]; [7],0
same,% Injury <20% (number of individuals),[1]; [7],8
same,% Injury >40% (number of individuals),[1]; [7],0
"C[C@@H](Oc1ccc(Cl)cc1Cl)C(=O)O [(R)-dichlorprop, R-2,4-dichlorophenoxypropionic acid]",% Injury 20-40% (number of individuals),[1]; [8],0
same,% Injury <20% (number of individuals),[1]; [8],0
same,% Injury >40% (number of individuals),[1]; [8],8
same,% Injury Ave,[1]; [8],63%
same,% Injury 20-40% (number of individuals),[1]; [9],0
same,% Injury <20% (number of individuals),[1]; [9],0
same,% Injury >40% (number of individuals),[1]; [9],8
same,% Injury Ave,[1]; [9],85%
same,% Injury 20-40% (number of individuals),[1]; [10],0
same,% Injury <20% (number of individuals),[1]; [10],0
same,% Injury >40% (number of individuals),[1]; [10],8
same,% Injury Ave,[1]; [10],96%
same,% Injury 20-40% (number of individuals),[1]; [11],0
same,% Injury <20% (number of individuals),[1]; [11],0
same,% Injury >40% (number of individuals),[1]; [11],8
same,% Injury Ave,[1]; [11],98%
Nc1c(Cl)c(F)nc(OCC(=O)O)c1Cl [Fluroxypyr],Ave % Injury 14DAT,[2]; 280 g ae/ha foliar,0%
same,Ave % Injury 14DAT,[2]; 560 g ae/ha foliar,2%
same,Ave % Injury 14DAT,[2]; 1120 g ae/ha foliar,3%
same,Ave % Injury 14DAT,[2]; 2240 g ae/ha foliar,5%
same,Ave % Injury 14DAT,[3]; 280 g ae/ha foliar,75* %
same,Ave % Injury 14DAT,[3]; 560 g ae/ha foliar,75* %
same,Ave % Injury 14DAT,[3]; 1120 g ae/ha foliar,75* %
same,Ave % Injury 14DAT,[3]; 2240 g ae/ha foliar,75* %
O=C(O)COc1nc(Cl)c(Cl)cc1Cl [triclopyr],Ave % Injury 14DAT,[2]; 280 g ae/ha foliar,0%
same,Ave % Injury 14DAT,[2]; 560 g ae/ha foliar,3%
same,Ave % Injury 14DAT,[2]; 1120 g ae/ha foliar,0%
same,Ave % Injury 14DAT,[2]; 2240 g ae/ha foliar,3%
same,Ave % Injury 14DAT,[3]; 280 g ae/ha foliar,52%
same,Ave % Injury 14DAT,[3]; 560 g ae/ha foliar,58%
same,Ave % Injury 14DAT,[3]; 1120 g ae/ha foliar,75* %
same,Ave % Injury 14DAT,[3]; 2240 g ae/ha foliar,75* %
